In patent publication US8940748B2, “Iminothiadiazine dioxide compounds as BACE inhibitors, compositions, and their use” (Merck Sharp & Dohme Corp., priority 2009, dated 2015):
Where two headings read alike, the source gives them in different places.

How the values were obtained:
[1] = test system: P-gp; assay: Caco-2 bi-directional permeability; type: in vitro ADME; conditions: human, Caco-2
Method: (§1) The bi-directional permeability with efflux potential of selected compounds of the invention vs. otherwise structurally identical iminopyrimidinones (collectively referred to as test compounds, shown in the table below) were assessed using Caco-2 cell line. The Caco-2 cells were maintained in DMEM (Dulbecco's Modified Eagle Medium) containing 10% fetal bovine serum, 1% non-essential amino acids, 2 mM L-glutamine, and 1% penicillin-streptomycin in an incubator at ˜37° C. in an atmosphere of 5% CO2 and about 90% relative humidity. The cell culture medium was changed three times weekly. Caco-2 cell monolayers were grown on polyethylene terephthalate filters using 24-well BD Falcon™ Cell Culture Insert Plates (0.33 cm^2 insert area, 1 μm pore size; BD BioSciences, Bedford, Mass.). The culture medium of the plate was changed every other day until used for the transport experiment (21-28 days post seeding).
(§2) The transport buffer (TM) was Hank's balanced salt solution (HBSS) with 10 mM HEPES and 25 mM glucose (pH 7.4) for dosing and TM with 4% bovine serum albumin for receiver (pH 7.4). The bi-directional permeability of the test compounds were tested at concentrations of 1, 10 and 100 μM was measured in triplicate with 2-hr incubation. The cell monolayer integrity was monitored with pre- and post-experimental trans-epithelial electrical resistance and post-experimental Lucifer Yellow (LY) permeability with 1 hr incubation.
(§3) The apparent permeability, recovery and efflux ratio values were calculated using the following equations:
(§4) where, • dCR/dt: The slope of the accumulative concentration in the receiver compartment versus time incubation (μM·s^−1) • C0hr: Donor concentration (μM) immediately after dosing • CD, final: Donor concentration (μM) at the end of incubation • S: Membrane surface area (cm^2) • VD: Volume of donor compartment (mL) • VR: Volume of receiver compartment (mL) • Papp-BLtoAP: Permeability from basolateral (BL) to apical (AP) transport

[2] = Caco-2 bi-directional permeability; type: in vitro ADME; conditions: human, Caco-2; permeability apical to basolateral; read-out: Caco-2 AP→BL
Method: as §1, §2, §3, §4

[3] = test system: endogenous rat Aβ1-40 (Aβ40) in cortex; assay: Cortical Aβ40 in rats after oral dosing (Luminex-based immunodetection); type: in vivo; conditions: read-out: Change in rat cortex Aβ40
Method: The following procedures were used.
Male CD rats (˜100 g; Crl:CD(SD); Charles River Laboratories, Kingston, N.Y.) were group housed and acclimated to the vivarium for 5-7 days prior to use in a study. Compounds were formulated in 20% hydroxypropyl-β-cyclodextrin and administered orally with a dosing volume of 5 ml/kg for rats. Three h after drug administration, rats were euthanized with excess CO2. The brain was removed from the skull and immediately frozen on dry ice. All tissues were stored at −70° C. until Aβ quantification.
Ab585 was labeled with biotin (b-Ab585) by first dialyzing the antibody sample extensively versus PBS (pH 7.8) to remove impurities, followed by dilution to between 1 and 2 mg/mL protein concentration. EZ-Link Sulfo-NHS-LC-Biotin (Pierce) was dissolved in PBS (pH 7.8) at a concentration of 1 mg/mL immediately prior to use. Ab585 was labeled with EZ-Link Sulfo-NHS-LC-biotin using a 10:1 biotin:antibody ratio by incubation at room temperature for 1 hour. The labeling reaction was quenched by addition of 1.0 M glycine to a final concentration of 0.1 M followed by 10 minute incubation at room temperature. Glycine was removed by extensive dialysis versus PBS.
The antibody was coupled to the beads using the Bio-Plex Amine Coupling Kit (Bio-Rad) as per the manufacturer's recommendations.
Rat cortex Aβ40 levels were measured from guanidine HCl extracts of individual rat cortices using a Luminex-based immunodetection assay. Rat brains were thawed briefly at 37° C. and both mid- and hindbrain regions were removed. The remaining material, consisting primarily of cortex (˜800 mg) was carried through the guanidine extraction procedure. Cortices were added to a 2 ml BioPur tube (Eppendorf) along with a 6.35 mm chrome-coated steel ball and 1.0 ml of sucrose homogenization buffer (20 mM HEPES [pH 7.5], 50 mM KCl, 50 mM sucrose, 2 mM EDTA, 2 mM EGTA supplemented with complete protease inhibitors [Roche, EDTA-free]). Samples were then homogenized by agitation for 1.5 min at 30 cycles/sec in a MM300 tissue mixer (Retsch®). The resulting cortical homogenate was extracted with guanidine-HCl by mixing 67 μl of homogenate with 133 μl of 5 M Guanidine HCl, 50 mM Tris HCl (pH 8.0). To maximize the efficiency of Aβ extraction, samples were vortexed and then sonicated for 2 minutes in an ice bath using an Ultrasonics XL cup horn sonicator at a power setting of 8 (Heat Systems, Inc.). Insoluble material was removed by ultracentrifugation using a using a TLA-55 rotor in a TL-100 benchtop centrifuge (Beckman) at 100,000×g for 30 minutes. The resulting supernatant was then either diluted 1:10 in 5 M guanidine HCl, 0.05 M Tris HCl (pH 8.0) for protein analysis (BCA protein assay, Pierce Biochemicals) or assayed neat for Aβ40 levels. The Luminex rodent Aβ40 assay was performed as follows. First, 96 well filter binding plates (Millipore, catalogue # MSBVN12) were wetted with 100 μl of 1×LAβ40 buffer (0.05 M HEPES [pH 7.5], 0.2% BSA, 0.2% Tween-20, 0.15 M NaCl) by vacuum filtration on a Millipore 96-well manifold. The plate bottom was sealed and 100 μl of 1×LAβ40 buffer was added to each well followed by addition of 50 μl each of G2-10:COOH beads (1000 beads/well) and 50 μl b-Ab585 at 0.5 μg/ml in 1×LAβ40 buffer. Guanidine HCl was added to synthetic rodent Aβ40 standards in order to control for the effect of guanidine in brain extracts on the assay performance. Ten microliters of cortical extract, rodent Aβ40 standards or cortical extract from amyloid precursor protein knockout mice (to define background immunoreactivity) was added to each well. Plates were covered and incubated overnight at 4° C. Following the incubation, wells were cleared by vacuum and washed twice with 100 μl of 1×LAβ40 buffer on a Millipore manifold.

[4] = target: purified human autoBACE-2 (Homo sapiens (Human), UniProt Q9Y5Z0); assay: BACE-2 assay (BACE-HTRF, time-resolved endpoint proteolysis); type: biochemical; conditions: Ki calculated from IC50 using the Cheng-Prusoff equation
Method: Inhibitor IC50s at purified human autoBACE-2 were determined in a time-resolved endpoint proteolysis assay that measures hydrolysis of the QSY7-[sequence]-Eu-amide FRET peptide substrate (BACE-HTRF assay). […] DMSO was present at 5% final concentration in the assay. Following laser excitation of sample wells at 320 nm, the fluorescence signal at 620 nm was collected for 400 ms following a 50 μs delay on a RUBYstar HTRF plate reader (BMG Labtechnologies). Raw RFU data was normalized to maximum (1.0 nM BACE/DMSO) and minimum (no enzyme/DMSO) RFU values. […] The Ki values were calculated from the IC50 using the Cheng-Prusoff equation.

[5] = target: soluble human BACE1 catalytic domain (Homo sapiens (Human), UniProt P56817); assay: BACE1 HTRF FRET assay; type: biochemical; conditions: Ki calculated from IC50 using the Cheng-Prusoff equation; read-out: BACE-1 Ki
[6] = Solution stability, Example A (pH 7.4 phosphate buffer/MeOH, LC/MS); type: physicochemical; conditions: for degredation: aqueous pH 7.4 buffer containing methanol
Method: A 1.05 mg/mL stock solution (5 mL) of Ex. 45 in MeOH was prepared. From the stock solution was taken out 1.25 mL and diluted to 25 mL with the addition of 23.75 mL of 10 mM phosphate buffer (pH 7.4)/MeOH (70/30 v/v). This new solution was split into three. One solution was incubated at 4° C., another incubated at 25° C. and the third incubated at 40° C. Each solution was analyzed by LC/MS after day 1, day 2 and day 6 and compared to a standard calibration curve for Ex. 45.
In the following study, the solution stability of the compound of Example 45 was measured and compared to that of Compound Z. The compound of Example 45 is an iminothiadiazine dioxide compound of the invention. Compound Z is the corresponding iminopyrimidinone compound. The structures of the compound of Example 45 and of Compound Z are shown below. Studies were performed in aqueous pH 7.4 buffer containing methanol at 4° C., 25° C. and 40° C.

[7] = Solution stability, Example B (50 mM pH 7.4 phosphate buffer, 25° C., LC/MS); type: physicochemical
Method: Stock solutions of the tested compounds were prepared by dissolving about 3 mg of each compound in 3 mL of acetonitrile. Standards for test compounds were prepared by diluting 1 mL of the stock solution with an additional 4 mL of acetonitrile. These standards were stored at 4° C. Samples were prepared by diluting 1 mL of the stock solution with 4 mL of 50 mM pH 7.4 phosphate buffer. These samples were stored at 25° C. in the absence of light. Standards and samples were analyzed by LC/MS initially and at day 1, day 4, and day 6.
Mobile phase A: 10 mM pH 5 ammonium acetate buffer:methanol (90:10)
Mobile phase B: 10 mM pH 5 ammonium acetate buffer:methanol (10:90)
Column: Zorbax SB-Phenyl 4.6×50 mm, 1.8 μm
Column temperature: 40° C.
Area % is the integration of peak from HPLC as reported by Waters Empower II software.
In the following study, the solution stability of the compound of Example 47 was measured and compared to that of Compound Y. The compound of Example 47 is an iminothiadiazine dioxide compound of the invention. Compound Y is the corresponding iminopyrimidinone compound. The structures of the compound of Example 47 and of Compound Y are shown below. Studies were performed in pH 7.4 buffer at 25° C.

[8] = test system: Caco-2 cell line; assay: Caco-2 bi-directional permeability; type: in vitro ADME; conditions: permeability apical to basolateral
Method: as §1, §2, §3, §4

[9] = rats, 3 h after a 10 mg/kg oral dose, vs vehicle cohort
[10] = pH 7.4, 40° C., last column without time heading
[11] = Standard (in acetonitrile, stored at 4° C.)

soluble human BACE1 catalytic domain, sequence (P56817 75-416): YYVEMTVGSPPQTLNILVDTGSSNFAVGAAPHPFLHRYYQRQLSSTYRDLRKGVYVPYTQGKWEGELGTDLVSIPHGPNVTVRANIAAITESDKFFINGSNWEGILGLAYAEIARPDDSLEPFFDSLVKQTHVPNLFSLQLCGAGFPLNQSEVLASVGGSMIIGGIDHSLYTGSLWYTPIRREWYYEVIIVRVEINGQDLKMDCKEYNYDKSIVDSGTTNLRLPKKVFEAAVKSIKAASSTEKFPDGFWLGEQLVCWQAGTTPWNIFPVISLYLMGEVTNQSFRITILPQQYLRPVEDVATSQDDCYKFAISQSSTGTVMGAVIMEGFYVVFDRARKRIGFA
purified human autoBACE-2, sequence (Q9Y5Z0 63-473 limits assumed): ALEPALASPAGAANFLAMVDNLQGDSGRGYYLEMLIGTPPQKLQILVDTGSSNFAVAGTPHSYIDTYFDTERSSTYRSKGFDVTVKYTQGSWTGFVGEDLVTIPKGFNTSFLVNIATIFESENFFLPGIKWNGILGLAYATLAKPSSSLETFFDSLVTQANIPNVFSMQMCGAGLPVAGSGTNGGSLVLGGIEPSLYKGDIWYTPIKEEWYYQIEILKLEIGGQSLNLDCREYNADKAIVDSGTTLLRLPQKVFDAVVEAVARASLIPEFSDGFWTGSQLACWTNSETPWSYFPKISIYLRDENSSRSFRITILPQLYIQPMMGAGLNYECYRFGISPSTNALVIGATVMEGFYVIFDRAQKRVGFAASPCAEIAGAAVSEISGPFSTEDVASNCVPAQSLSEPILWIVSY

COc1cnc(C(=O)Nc2cc(F)c(F)c([C@]3(C)CC(=O)N(C)C(=N)N3)c2)cn1 [Iminopyrimidinone 40di]
efflux ratio at 2 h [1]: 3.2
Papp A→B at 2 h [2]: 6.5 ×10⁻⁶ cm/s
change in vivo at 10 mg/kg [3, 9]: 5%

COc1cnc(C(=O)Nc2ccc(F)c([C@]3(C)CS(=O)(=O)N(C)C(=N)N3)c2)cn1 [Example 40ai]
efflux ratio at 2 h [1]: 1.8
change in vivo at 10 mg/kg [3, 9]: -51%
Ki [4]: 1.99 nM
Ki [5]: 1.64 nM

CN1C(=N)N[C@](C)(c2cc(NC(=O)c3ccc(C(F)(F)F)cn3)ccc2F)CS1(=O)=O [Example 26]
efflux ratio at 2 h [1]: 2.9
change in vivo at 10 mg/kg [3, 9]: -33%
Ki [4]: 2.46 nM
Ki [5]: 1.26 nM

CN1C(=N)N[C@](C)(c2c(F)ccc(NC(=O)c3ccc(F)cn3)c2F)CS1(=O)=O [Example 173]
Papp A→B at 2 h [2]: 12.6 ×10⁻⁶ cm/s
change in vivo at 10 mg/kg [3, 9]: -27%

CN1C(=N)N[C@](C)(c2cc(-c3cccc(C#N)c3)cs2)CC1=O [Compound Z]
degredation ([6]; 4° C., after 1 day): 18.3%
degredation ([6]; 25° C., time not stated): 53.87%
degredation ([6]; 40° C., after 1 day): 79.93%
Assay (Area %) ([6]; pH 7.4, 4° C., 1 day): 69.84 Area %
Assay (Area %), degradation symbol ([6]; pH 7.4, 4° C., 2 days): — ((—) stands for > 20% degradation)
Assay (Area %), degradation symbol ([6]; pH 7.4, 4° C., 6 days): — ((—) stands for > 20% degradation)
Assay (Area %) ([6]; pH 7.4, 4° C., Initial): 88.15 Area %
Assay (Area %), degradation symbol ([6]; pH 7.4, 4° C., last column without time heading): — ((—) stands for > 20% degradation)
Assay (Area %) ([6]; pH 7.4, 25° C., 1 day): 34.28 Area %
Assay (Area %), degradation symbol ([6]; pH 7.4, 25° C., 2 days): — ((—) stands for > 20% degradation)
Assay (Area %), degradation symbol ([6]; pH 7.4, 25° C., 6 days): — ((—) stands for > 20% degradation)
Assay (Area %) ([6]; pH 7.4, 25° C., Initial): 88.15 Area %
Assay (Area %), degradation symbol ([6]; pH 7.4, 25° C., last column without time heading): — ((—) stands for > 20% degradation)
Assay (Area %) ([6]; pH 7.4, 40° C., 1 day): 8.22 Area %
Assay (Area %), degradation symbol ([6]; pH 7.4, 40° C., 2 days): — ((—) stands for > 20% degradation)
Assay (Area %), degradation symbol ([6]; pH 7.4, 40° C., 6 days): — ((—) stands for > 20% degradation)
Assay (Area %) ([6]; pH 7.4, 40° C., Initial): 88.15 Area %
Assay (Area %), degradation symbol [6, 10]: — ((—) stands for > 20% degradation)

CC#Cc1cncc(-c2csc([C@]3(C)CS(=O)(=O)N(C)C(=N)N3)c2)c1 [Example 47]
Area %, Day 1 (Unknown peak, RRT 1.49) ([7]; Sample at pH 7.4, 25° C.): 1.44 Area %
Area %, Day 1 (parent peak, RRT 1.00) ([7]; Sample at pH 7.4, 25° C.): 98.56 Area %
Area %, Day 4 (Unknown peak, RRT 1.49) ([7]; Sample at pH 7.4, 25° C.): 1.47 Area %
Area %, Day 4 (parent peak, RRT 1.00) ([7]; Sample at pH 7.4, 25° C.): 98.53 Area %
Area %, Day 6 (Unknown peak, RRT 1.49) ([7]; Sample at pH 7.4, 25° C.): 1.47 Area %
Area %, Day 6 (parent peak, RRT 1.00) ([7]; Sample at pH 7.4, 25° C.): 98.53 Area %
Area %, Initial (Unknown peak, RRT 1.49) ([7]; Sample at pH 7.4, 25° C.): 1.45 Area %
Area %, Initial (parent peak, RRT 1.00) ([7]; Sample at pH 7.4, 25° C.): 98.55 Area %
Area %, Day 1 (Unknown peak, RRT 1.49) [7, 11]: 1.45 Area %
Area %, Day 1 (parent peak, RRT 1.00) [7, 11]: 98.55 Area %
Area %, Day 4 (Unknown peak, RRT 1.49) [7, 11]: 1.48 Area %
Area %, Day 4 (parent peak, RRT 1.00) [7, 11]: 98.52 Area %
Area %, Day 6 (Unknown peak, RRT 1.49) [7, 11]: 1.48 Area %
Area %, Day 6 (parent peak, RRT 1.00) [7, 11]: 98.52 Area %
Area %, Initial (Unknown peak, RRT 1.49) [7, 11]: 1.47 Area %
Area %, Initial (parent peak, RRT 1.00) [7, 11]: 98.53 Area %
hydrolysis product ([7]; pH 7.4 buffer at 25° C., after 6 days): 0%
Ki [4]: ~1 nM
Ki [5]: ~6.5 nM

COc1cnc(C(=O)Nc2cc(F)c(F)c([C@]3(C)CS(=O)(=O)N(C)C(=N)N3)c2)cn1 [Example 40di]
efflux ratio at 2 h [1]: 2
change in vivo at 10 mg/kg [3, 9]: -38%
Ki [4]: 2.15 nM
Ki [5]: 1.05 nM

CN1C(=N)N[C@](C)(c2cc(NC(=O)c3ccc(F)cn3)ccc2F)CS1(=O)=O [Example 25]
change in vivo at 10 mg/kg [3, 9]: -49%

Cc1ccc(C(=O)Nc2ccc(F)c([C@]3(C)CS(=O)(=O)N(C)C(=N)N3)c2)nc1 [Example 35]
efflux ratio at 2 h [1]: 2.1
Ki [4]: 0.45 nM
Ki [5]: 3 nM

CN1C(=N)N[C@](C)(c2cc(-c3cccc(C#N)c3)cs2)CS1(=O)=O [Example 45]
efflux ratio at 2 h [1]: 1.4
degredation ([6]; 4° C., after 6 days): 0.93%
degredation ([6]; 25° C., after 6 days): 7.4%
degredation ([6]; 40° C., after 6 days): 30.71%
Assay (Area %) ([6]; pH 7.4, 4° C., 1 day): 99.69 Area %
Assay (Area %) ([6]; pH 7.4, 4° C., 2 days): 99.04 Area %
Assay (Area %) ([6]; pH 7.4, 4° C., 6 days): 98.89 Area %
Assay (Area %) ([6]; pH 7.4, 4° C., Initial): 99.82 Area %
Assay (Area %) ([6]; pH 7.4, 25° C., 1 day): 98.45 Area %
Assay (Area %) ([6]; pH 7.4, 25° C., 2 days): 96.07 Area %
Assay (Area %) ([6]; pH 7.4, 25° C., 6 days): 92.43 Area %
Assay (Area %) ([6]; pH 7.4, 25° C., Initial): 99.82 Area %
Assay (Area %) ([6]; pH 7.4, 40° C., 1 day): 96.32 Area %
Assay (Area %) ([6]; pH 7.4, 40° C., 2 days): 89.70 Area %
Assay (Area %) ([6]; pH 7.4, 40° C., 6 days): 69.11 Area %
Assay (Area %) ([6]; pH 7.4, 40° C., Initial): 99.82 Area %
Assay (Area %), degradation symbol [6, 10]: — ((—) stands for > 20% degradation)
Ki [5]: 25.6 nM

CC#Cc1cncc(-c2cc(Cl)c([C@]3(C)CC(=O)N(C)C(=N)N3)s2)c1 [Iminopyrimidinone 52, reference compound]
Papp A→B at 2 h [2]: 15.3 ×10⁻⁶ cm/s

CN1C(=N)N[C@](C)(c2cc(-c3ccc(F)c(C#N)c3)cs2)CS1(=O)=O [Example 46]
Ki [4]: 8.23 nM
Ki [5]: 46 nM

Cc1ccc(C(=O)Nc2ccc(F)c([C@]3(C)CC(=O)N(C)C(=N)N3)c2)nc1 [Iminopyrimidinone 35]
Caco-2 AP→BL [8]: 0 nm/s

Cc1cnc(C(=O)Nc2ccc(F)c([C@]3(C)CS(=O)(=O)N(C)C(=N)N3)c2)cn1 [Example 36]
efflux ratio at 2 h [1]: 3.3
change in vivo at 10 mg/kg [3, 9]: -25%
Ki [4]: 4.85 nM
Ki [5]: 10 nM

CN1C(=N)N[C@](C)(c2cc(-c3cccc(C#N)c3)cs2)CC1=O [Iminopyrimidinone 45]
efflux ratio at 2 h [1]: 2.6
Papp A→B at 2 h [2]: 17.4 ×10⁻⁶ cm/s
change in vivo at 10 mg/kg [3, 9]: -5%

CN1C(=N)N[C@](C)(c2cc(NC(=O)c3ccc(F)cn3)ccc2F)CC1=O [Iminopyrimidinone 25]
efflux ratio at 2 h [1]: 10.6
Papp A→B at 2 h [2]: 2.2 ×10⁻⁶ cm/s
change in vivo at 10 mg/kg [3, 9]: -11%

CN1C(=N)N[C@](C)(c2cc(NC(=O)c3ccc(Cl)cn3)ccc2F)CC1=O [Iminopyrimidinone 34, reference compound]
Caco-2 AP→BL [8]: 0 nm/s
change in vivo at 10 mg/kg ([3]; po, 3 h): -19%

CN1C(=N)N[C@](C)(c2cc(NC(=O)c3ccc(C(F)(F)F)cn3)ccc2F)CC1=O [Iminopyrimidinone 26]
efflux ratio at 2 h [1]: 11.3
Papp A→B at 2 h [2]: 1.7 ×10⁻⁶ cm/s
change in vivo at 10 mg/kg [3, 9]: 0%

CN1C(=N)N[C@](C)(c2cc(NC(=O)c3ccc(Cl)cn3)ccc2F)CS1(=O)=O [Example 34]
efflux ratio at 2 h [1]: 3.1
change in vivo at 10 mg/kg [3, 9]: -51%
Ki [4]: 0.22 nM
Ki [5]: 0.949 nM

Cc1cnc(C(=O)Nc2ccc(F)c([C@]3(C)CC(=O)N(C)C(=N)N3)c2)cn1 [Iminopyrimidinone 36]
efflux ratio at 2 h [1]: 12.9
Papp A→B at 2 h [2]: 1.1 ×10⁻⁶ cm/s

CN1C(=N)N[C@](C)(c2c(F)ccc(NC(=O)c3ccc(F)cn3)c2F)CC1=O [Iminopyrimidinone 173]
efflux ratio at 2 h [1]: 6.1
Papp A→B at 2 h [2]: 2.5 ×10⁻⁶ cm/s
change in vivo at 10 mg/kg [3, 9]: -3%

CN1C(=N)N[C@](C)(c2cc(-c3ccc(F)c(C#N)c3)cs2)CC1=O [Iminopyrimidinone 46]
efflux ratio at 2 h [1]: 2.6
Papp A→B at 2 h [2]: 13.6 ×10⁻⁶ cm/s
